Organism: Rattus norvegicus
Assay: DrugMatrix - Regimen: Daily Repeat
Format: toxicity, organism-based, Sprague-Dawley
Design: regimen Daily Repeat, gender Male, age 6-8 weeks
Details: in vivo, po, route oral GAVAGE, vehicle .5 % CMC; for ABSOLUTE BASOPHIL / ABSOLUTE EOSINOPHIL / ABSOLUTE LYMPHOCYTE / ABSOLUTE MONOCYTE / ABSOLUTE SEGMENTED NEUTROPHIL / BASOPHIL / EOSINOPHIL / ERYTHROCYTE COUNT / HEMATOCRIT / HEMOGLOBIN / LEUKOCYTE COUNT / LYMPHOCYTE / MEAN CORPUSCULAR HEMOGLOBIN / MEAN CORPUSCULAR HEMOGLOBIN CONCENTRATION / MEAN CORPUSCULAR VOLUME / MONOCYTE / NEUTROPHIL / NUCLEATED RED BLOOD CELLS / PLATELET COUNT: tissue Blood; for ALANINE AMINOTRANSFERASE / ALBUMIN / ALKALINE PHOSPHATASE / ASPARTATE AMINOTRANSFERASE / BLOOD UREA NITROGEN / CARBON DIOXIDE / CHLORIDE / CHOLESTEROL / CREATINE PHOSPHOKINASE / CREATININE / GLUCOSE / LACTATE DEHYDROGENASE / LIPASE / PHOSPHORUS / POTASSIUM / SODIUM / TOTAL BILIRUBIN / TOTAL PROTEIN / URIC ACID: tissue Plasma
[1] = 0 mg/kg, 72 h, dose level Control, time 3 day
[2] = 0 mg/kg, 120 h, dose level Control, time 5 day
[3] = 50 mg/kg, 72 h, dose level Low, time 3 day

## CC(/C=C1\SC(=S)N(CC(=O)O)C1=O)=C\c1ccccc1
[1]
  ABSOLUTE BASOPHIL: 0 CELLS/uL
  ABSOLUTE EOSINOPHIL: 0 CELLS/uL
  ABSOLUTE LYMPHOCYTE: 12191.17 CELLS/uL
  ABSOLUTE MONOCYTE: 183.17 CELLS/uL
  ABSOLUTE SEGMENTED NEUTROPHIL: 1192.33 CELLS/uL
  BASOPHIL: 0%
  EOSINOPHIL: 0%
  ERYTHROCYTE COUNT: 5.51 x10E6/uL
  HEMATOCRIT: 35.45%
  HEMOGLOBIN: 13.82 G/DL
  LEUKOCYTE COUNT: 13.57 x10E3/uL
  LYMPHOCYTE: 89.83%
  MEAN CORPUSCULAR HEMOGLOBIN: 25.1 pg
  MEAN CORPUSCULAR HEMOGLOBIN CONCENTRATION: 38.98 G/DL
  MEAN CORPUSCULAR VOLUME: 64.42 fL
  MONOCYTE: 1.33%
  NEUTROPHIL: 8.83%
  NUCLEATED RED BLOOD CELLS: 0 /100WBC
  PLATELET COUNT: 1118.17 x10E3/uL
  ALANINE AMINOTRANSFERASE: 55 u/L
  ALBUMIN: 4.15 G/DL
  ALKALINE PHOSPHATASE: 449.5 u/L
  ASPARTATE AMINOTRANSFERASE: 112.83 u/L
  BLOOD UREA NITROGEN: 17.33 mg/dL
  CARBON DIOXIDE: 29.5 mmol/L
  CHLORIDE: 101 MEQ/L
  CHOLESTEROL: 70 mg/dL
  CREATINE PHOSPHOKINASE: 1325.83 u/L
  CREATININE: 0.18 mg/dL
  GLUCOSE: 171.5 mg/dL
  LACTATE DEHYDROGENASE: 386 u/L
  LIPASE: 10 u/L
  PHOSPHORUS: 11.57 mg/dL
  POTASSIUM: 6.21 MEQ/L
  SODIUM: 141.65 MEQ/L
  TOTAL BILIRUBIN: 0.15 mg/dL
  TOTAL PROTEIN: 5.75 G/DL
  URIC ACID: 1.28 mg/dL
[2]
  ABSOLUTE BASOPHIL: 0 CELLS/uL
  ABSOLUTE EOSINOPHIL: 138.17 CELLS/uL
  ABSOLUTE LYMPHOCYTE: 13283.17 CELLS/uL
  ABSOLUTE MONOCYTE: 303.83 CELLS/uL
  ABSOLUTE SEGMENTED NEUTROPHIL: 1308.17 CELLS/uL
  BASOPHIL: 0%
  EOSINOPHIL: 1%
  ERYTHROCYTE COUNT: 5.32 x10E6/uL
  HEMATOCRIT: 33.8%
  HEMOGLOBIN: 13.63 G/DL
  LEUKOCYTE COUNT: 15.03 x10E3/uL
  LYMPHOCYTE: 88.33%
  MEAN CORPUSCULAR HEMOGLOBIN: 25.68 pg
  MEAN CORPUSCULAR HEMOGLOBIN CONCENTRATION: 40.35 G/DL
  MEAN CORPUSCULAR VOLUME: 63.67 fL
  MONOCYTE: 1.83%
  NEUTROPHIL: 8.83%
  NUCLEATED RED BLOOD CELLS: 0 /100WBC
  PLATELET COUNT: 1097.5 x10E3/uL
  ALANINE AMINOTRANSFERASE: 54.5 u/L
  ALBUMIN: 4.27 G/DL
  ALKALINE PHOSPHATASE: 337 u/L
  ASPARTATE AMINOTRANSFERASE: 94.67 u/L
  BLOOD UREA NITROGEN: 17 mg/dL
  CARBON DIOXIDE: 28.33 mmol/L
  CHLORIDE: 101.5 MEQ/L
  CHOLESTEROL: 71.33 mg/dL
  CREATINE PHOSPHOKINASE: 628.17 u/L
  CREATININE: 0.19 mg/dL
  GLUCOSE: 177.83 mg/dL
  LACTATE DEHYDROGENASE: 500.5 u/L
  LIPASE: 9.5 u/L
  PHOSPHORUS: 12.3 mg/dL
  POTASSIUM: 5.63 MEQ/L
  SODIUM: 143.03 MEQ/L
  TOTAL BILIRUBIN: 0.2 mg/dL
  TOTAL PROTEIN: 6.02 G/DL
  URIC ACID: 1.5 mg/dL
[3]
  ABSOLUTE BASOPHIL: 0 CELLS/uL
  ABSOLUTE EOSINOPHIL: 0 CELLS/uL
  ABSOLUTE LYMPHOCYTE: 10745.33 CELLS/uL
  ABSOLUTE MONOCYTE: 122.33 CELLS/uL
  ABSOLUTE SEGMENTED NEUTROPHIL: 899 CELLS/uL
  BASOPHIL: 0%
  EOSINOPHIL: 0%
  ERYTHROCYTE COUNT: 5.12 x10E6/uL
  HEMATOCRIT: 32.47%
  HEMOGLOBIN: 13.07 G/DL
  LEUKOCYTE COUNT: 11.77 x10E3/uL
  LYMPHOCYTE: 91.33%
  MEAN CORPUSCULAR HEMOGLOBIN: 25.57 pg
  MEAN CORPUSCULAR HEMOGLOBIN CONCENTRATION: 40.23 G/DL
  MEAN CORPUSCULAR VOLUME: 63.67 fL
  MONOCYTE: 1%
  NEUTROPHIL: 7.67%
  NUCLEATED RED BLOOD CELLS: 0.33 /100WBC
  PLATELET COUNT: 1123 x10E3/uL
  ALANINE AMINOTRANSFERASE: 53.67 u/L
  ALBUMIN: 4.27 G/DL
  ALKALINE PHOSPHATASE: 336 u/L
  ASPARTATE AMINOTRANSFERASE: 85.33 u/L
  BLOOD UREA NITROGEN: 16 mg/dL
  CARBON DIOXIDE: 27.33 mmol/L
  CHLORIDE: 101.67 MEQ/L
  CHOLESTEROL: 75.67 mg/dL
  CREATINE PHOSPHOKINASE: 291.33 u/L
  CREATININE: 0.17 mg/dL
  GLUCOSE: 165.67 mg/dL
  LACTATE DEHYDROGENASE: 165.67 u/L
  LIPASE: 9.33 u/L
  PHOSPHORUS: 12.33 mg/dL
  POTASSIUM: 6.32 MEQ/L
  SODIUM: 143.7 MEQ/L
  TOTAL BILIRUBIN: 0.1 mg/dL
  TOTAL PROTEIN: 5.77 G/DL
  URIC ACID: 2.2 mg/dL

Source: ChEMBL document CHEMBL3885881, “DrugMatrix”
